# Source: paper PMC7746945 (Neuro-Oncology, 2020)
# Where two headings read alike, the source gives them in different places.
# Experiments:
# MDR1 = molecular target: T1, MDR1 (Homo sapiens, UniProt P08183); experiment: Directional transport of [14C]-olaparib across MDCKII-MDR1 monolayers, with or without ketoconazole; type: in vitro ADME
# T1 construct: host or cells: MDCKII (Madin-Darby canine kidney type II) cells stably expressing human MDR1 cDNA
# Description: Canine kidney epithelial cells, stably expressing human MDR1 cDNA (Madin-Darby canine kidney type II [MDCKII]–MDR1 cells) or empty vector (MDCKII control), were used to model the intact BBB and determine permeability coefficients of (^14C)-olaparib in the presence of ketoconazole (25 μM). Whole body autoradiography was performed on male pigmented rats after single oral administration of [^14C]-olaparib (15 mg/kg; 5 MBq/kg). For autoradiography studies, animal care and experiments were carried out in accordance with AstraZeneca guidelines, which comply with UK standards. […] Xenograft experiments were performed under the relevant UK Home Office Project Licence and carried out with ethical approval from the University of Glasgow under the Animal (Scientific Procedures) Act 1986 and the EU directive 2010. Mice were maintained in individually ventilated cages with environmental enrichment and following the guidelines of ARRIVE (Animal Research: Reporting of In Vivo Experiments). […] Ratiometric t-test analysis determined SER confidence intervals and P-values. Further details are available in the Supplementary Material.
# Apparent permeability coefficients were calculated for apical to basolateral (Papp a‒b) and basolateral to apical transport (Papp b‒a) as described in Methods. […] (B) Single oral doses of 15 mg/kg [14C]-olaparib were administered to male pigmented rats that were subsequently culled, sectioned, and subjected to whole body autoradiography at the timepoints shown. Radioactivity was excluded from the central nervous system in all animals at all timepoints. […] Blood, tumor, and contralateral (non tumor bearing) brain were harvested and snap frozen at the time points shown. […] Note different y-axis scales.
# Monolayers were cultured in Dulbeco’s Modified Eagle Medium (DMEM) supplemented with glucose (4.5 g/L), 10% fetal calf serum, penicillin and streptomycin on semi-permeable filter inserts (Transwell plates 3401, Costar, Cambridge, MA) for three days. Under these conditions MDR1 localises to the apical plasma membrane. Monolayer integrity was assessed by transepithelial electrical resistance (TEER) measurement then inserts washed with Hank’s Balanced Salt Solution (HBSS) and transferred to 12-well plates containing HBSS (to measure apical to basal transport, a – b) or [14C]-olaparib diluted in HBSS (dose solution, to measure basal to apical transport, b – a). After addition of dose solution (a – b) or HBSS (b – a) to the apical chamber, samples of apical and basolateral compartments were collected immediately after dosing and after 120 minutes incubation. Three concentrations of 14C-olaparib were tested (0.1, 1 and 10 µM), each in three replicates. Radioactivity was determined by liquid scintillation counting. […] Transport of olaparib or reference substrate cimetidine was determined in MDCKII-BCRP cells. Apparent permeability coefficients (Papp) were calculated:
# Efflux ratio = Papp b - a /a - b = Papp b - a / Papp a - b (mean)
# MDCKII corrected efflux ratio =
# Papp b - a /a - b ratio in transfected MDCKII cells
# Papp b - a /a - b ratio in MDCKII control cells (mean)
# [1] = MDCK-MDR1, with ketoconazole 25 µM, read-out: Papp b-a + ketoconazole (SD)
# [2] = of 16 RP2D patients, olaparib with TMZ
# T1 sequence (P08183 whole entry): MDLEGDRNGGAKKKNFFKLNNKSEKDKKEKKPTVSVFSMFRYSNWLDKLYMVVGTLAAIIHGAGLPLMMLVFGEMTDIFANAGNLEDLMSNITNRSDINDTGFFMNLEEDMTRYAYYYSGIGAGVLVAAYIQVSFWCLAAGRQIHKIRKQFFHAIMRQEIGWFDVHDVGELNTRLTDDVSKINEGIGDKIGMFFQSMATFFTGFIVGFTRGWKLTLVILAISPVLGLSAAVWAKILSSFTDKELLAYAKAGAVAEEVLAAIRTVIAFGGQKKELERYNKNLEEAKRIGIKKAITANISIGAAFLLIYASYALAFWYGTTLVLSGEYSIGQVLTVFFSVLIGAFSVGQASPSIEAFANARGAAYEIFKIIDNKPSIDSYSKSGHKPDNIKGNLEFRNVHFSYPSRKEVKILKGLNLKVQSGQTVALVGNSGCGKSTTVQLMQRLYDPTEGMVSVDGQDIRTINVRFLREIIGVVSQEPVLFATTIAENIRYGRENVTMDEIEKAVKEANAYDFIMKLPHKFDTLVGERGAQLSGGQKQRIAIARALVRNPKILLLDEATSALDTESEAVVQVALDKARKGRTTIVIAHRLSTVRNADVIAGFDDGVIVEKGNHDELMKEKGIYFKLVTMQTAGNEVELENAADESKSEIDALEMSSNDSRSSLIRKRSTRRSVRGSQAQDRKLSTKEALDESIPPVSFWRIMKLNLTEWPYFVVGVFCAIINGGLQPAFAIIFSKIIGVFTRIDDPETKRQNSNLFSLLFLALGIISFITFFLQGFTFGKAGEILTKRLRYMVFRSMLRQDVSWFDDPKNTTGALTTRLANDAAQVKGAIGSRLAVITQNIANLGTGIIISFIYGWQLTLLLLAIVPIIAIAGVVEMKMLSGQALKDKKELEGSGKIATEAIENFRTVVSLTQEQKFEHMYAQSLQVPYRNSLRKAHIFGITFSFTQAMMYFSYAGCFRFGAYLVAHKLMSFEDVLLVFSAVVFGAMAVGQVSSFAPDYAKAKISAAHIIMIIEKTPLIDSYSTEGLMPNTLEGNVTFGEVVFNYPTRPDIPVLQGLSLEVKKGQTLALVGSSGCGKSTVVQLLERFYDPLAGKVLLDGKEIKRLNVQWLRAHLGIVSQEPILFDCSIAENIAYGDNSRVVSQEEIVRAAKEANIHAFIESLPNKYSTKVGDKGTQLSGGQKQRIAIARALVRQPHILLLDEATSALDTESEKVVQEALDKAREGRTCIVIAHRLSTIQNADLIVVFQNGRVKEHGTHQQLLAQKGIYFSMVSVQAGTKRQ
smiles,measurement,setting,value
"O=C(c1cc(Cc2n[nH]c(=O)c3ccccc23)ccc1F)N1CCN(C(=O)C2CC2)CC1 [olaparib, 4-[3-(4-cyclopropanecarbonylpiperazine-1-carbonyl)-4-fluorobenzyl]-2H-phthalazin-1-one]","Papp A→B at 120 min, 1 µM",MDR1; MDCK-MDR1,0.28 ×10⁻⁶ cm/s
same,"Papp A→B at 120 min, 10 µM",MDR1; MDCK-MDR1,0.58 ×10⁻⁶ cm/s
same,"Papp B→A at 120 min, 1 µM",MDR1; MDCK-MDR1,40.6 ×10⁻⁶ cm/s
same,"Papp B→A at 120 min, 10 µM","MDR1; MDCK-MDR1, read-out: Papp b-a (SD)",39.4 ×10⁻⁶ cm/s
same,"Papp B→A at 120 min, 1 µM",MDR1; [1],24.1 ×10⁻⁶ cm/s
same,"Papp B→A at 120 min, 10 µM",MDR1; [1],17.1 ×10⁻⁶ cm/s
same,patients needing dose reductions for neutropenia (grade 3) and thrombocytopenia (grade 2),"cohort 1, olaparib with TMZ",2
same,DLT,"cohort 3, olaparib with TMZ, one DLT",grade 3 vomiting
same,toxicity and tolerability of schedule,"cohort 4, olaparib with TMZ, one patient","toxic death associated with pancytopenia, septic shock, and renal failure"
same,"grade 2 nausea, patients",[2],1
same,"grade 2 pruritus, patients",[2],1
same,"grade 2 vomiting, patients",[2],1
same,"grade 3–4 anemia, patients",[2],3
same,"grade 3–4 lymphopenia, patients",[2],7
same,"grade 3–4 neutropenia, patients",[2],2
same,"grade 3–4 thrombocytopenia, patients",[2],4
same,patients with grade 3–4 hematological toxicities,[2],7
same,effect on TMZ-related hematological toxicity,olaparib with TMZ,exacerbated
same,"MTD / RP2D, olaparib dose","once daily, days 1–3 per week, with TMZ 75 mg/m^2 daily for 42 days",150 mg
